{"source": "patent US20060110790A1", "about": "“Expression system for large functional proteins” (priority 2002, published 2006)", "biological_target": "T1, individually expressed C half of ABCR (Homo sapiens, UniProt P78363)", "T1 construct": "The cDNAs coding for the N-half (amino acids 1-1325) and C-half (amino acids 1326-2273) of ABCR; made in house; host or cells: COS-1 cells", "T1 sequence (P78363 1326-2273)": "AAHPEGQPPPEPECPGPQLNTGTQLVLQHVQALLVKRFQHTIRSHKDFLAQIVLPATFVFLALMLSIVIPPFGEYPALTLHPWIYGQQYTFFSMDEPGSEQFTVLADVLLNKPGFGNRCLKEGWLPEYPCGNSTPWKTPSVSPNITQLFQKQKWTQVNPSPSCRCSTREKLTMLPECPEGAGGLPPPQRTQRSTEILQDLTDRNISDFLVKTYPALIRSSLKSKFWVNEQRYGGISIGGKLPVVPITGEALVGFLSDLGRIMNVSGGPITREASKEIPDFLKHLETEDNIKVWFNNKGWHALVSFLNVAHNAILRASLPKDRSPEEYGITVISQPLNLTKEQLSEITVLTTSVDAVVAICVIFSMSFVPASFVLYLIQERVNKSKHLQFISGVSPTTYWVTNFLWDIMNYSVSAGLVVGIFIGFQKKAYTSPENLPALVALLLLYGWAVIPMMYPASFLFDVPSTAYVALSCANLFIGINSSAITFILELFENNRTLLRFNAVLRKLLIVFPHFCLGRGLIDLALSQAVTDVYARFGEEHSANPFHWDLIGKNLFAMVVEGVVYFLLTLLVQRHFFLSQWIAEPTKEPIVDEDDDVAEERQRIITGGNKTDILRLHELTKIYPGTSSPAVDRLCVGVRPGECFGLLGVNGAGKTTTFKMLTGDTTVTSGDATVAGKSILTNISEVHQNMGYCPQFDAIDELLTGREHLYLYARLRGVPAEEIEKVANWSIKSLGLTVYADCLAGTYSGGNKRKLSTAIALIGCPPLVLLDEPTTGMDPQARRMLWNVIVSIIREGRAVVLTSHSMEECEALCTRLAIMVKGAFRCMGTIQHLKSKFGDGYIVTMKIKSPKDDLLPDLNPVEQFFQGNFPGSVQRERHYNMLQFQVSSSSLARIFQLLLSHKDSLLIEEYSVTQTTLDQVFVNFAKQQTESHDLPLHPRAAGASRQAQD", "experiment": "Retinal-stimulated ATPase activity of purified protein reconstituted in lipid vesicles", "type": "biochemical", "conditions": "individually expressed in COS-1 cells, 50 μM [α32P]ATP", "experimental": "Membranes (from two 10 cm dishes) were solubilized in 0.5 ml of 1% Triton-X100 in Buffer A (140 mM NaCl, 20 mM Tris-HCl, pH 7.4) for 20 min on ice. For ATPase assays, the membrane preparation step was omitted and the cell suspension was solubilized directly in Buffer B (10 mg/ml soybean phospholipids, 10% glycerol, 1 mM dithiothreitol, 100 mM NaCl, 3 mM MgCl2, 50 mM NaHEPES, pH 7.4) containing 18 mM CHAPS. The supernatant after a 10 min centrifugation at 40,000 rpm (TLA100.4 rotor) was mixed with 50 μl Rim3F4 Sepharose 2B for 1 h at 4° C. The beads were washed 6 times in Buffer A containing 0.2% Triton X-100 or Buffer B containing 10 mM CHAPS and eluted with 4% SDS (for electrophoresis) or 0.2 mg/ml Rim3F4 peptide (for reconstitution and determination of ATPase activity). Purified protein (24 μl) was incubated with 6 μl of 50 mg/ml lipid (1:1 mixture of dioleoylphosphatidylethanolamine and brain polar lipid, by weight) and 3 μl n-octylglucoside for 30 min on ice. The mixture was diluted rapidly with 200 μl of Buffer C (1 mM dithiothreitol, 140 mM NaCl, 25 mM NaHEPES, pH 7.4) and passed through a 200 μl Extracti-gel column (Pierce). The flow-through containing the reconstituted protein was used for determination of ATPase activity.\nATPase activity was measured as described previously (Ahn, J., Wong, J. T., and Molday, R. S. (2000) J Biol Chem 275(27), 20399-405) using 50 μM [α^32P]ATP and thin layer chromatography. The all-trans retinal concentration was determined spectrophotometrically (λ383 nm=42.88 mM^−1 cm^−1). Protein concentration was estimated from the eluate before reconstitution by laser densitometry of Coomassie blue stained gels using bovine serum albumin as a standard. […] Direct protein measurements after reconstitution by densitometry of Western blots was about half of that in the eluate. […]\nATPase Activity of Expressed N and C Halves—The basal and retinal activated ATPase activity of full-length ABCR and the N and C halves individually or co-expressed in COS-1 cells was determined after immunoaffinity purification and reconstitution into lipid vesicles. […]", "data": [{"smiles": "CC1=C(/C=C/C(C)=C/C=C/C(C)=C/C=O)C(C)(C)CCC1", "note": "[all-trans retinal]", "values": [{"measurement": "stimulation of ATPase activity", "result": "not stimulated"}]}]}
